Test [1] relates to MDA-MB-231 cells. Description: TUNEL assay (DNA damage). The format is cell-based, human. The note with it: 50 μM, 24 h. The procedure:
To further assess the effect of 3h treatment in MDA-MB-231, the terminal deoxynucleotidyl transferase dUTP nick-end labeling (TUNEL) assay was used. Thus, 3h or Thalidomide, as reference drug, were administered to the cells, for 24 h, at 25 and 50 μM concentrations, respectively, or with only the vehicle (DMSO), as negative control and then processed as outlined in the experimental section. […] Nuclei were counterstained with blue DAPI (Figure 2, panels A), and merge channels were also shown (Figure 2, panels C), where it is evident the perfect superposition of green and blue signals. […] Images taken from bright fields were also included (Figure 2, panels D).
DNA damage and cell death were analyzed by means of the TUNEL assay as indicated by the manufacturer’s protocols (CF™488A TUNEL Assay Apoptosis Detection Kit, Biotium, Hayward, CA, USA), with few changes, as in [42]. DAPI staining (0.2 μg/mL, Sigma Aldrich, Milan, Italy) was adopted for cell nuclei. Observations were made at 20× magnification using a fluorescence microscope (Leica DM 6000, Leica Microsystem Srl, Buccinasco, Italy). LAS-X software (Version: 3.5.7.23225; Leica Microsystem Srl, Buccinasco, Italy) was employed for the acquisition and processing of the images. Images are representative of two separate experiments from which different fields were acquired.
Figure 2 TUNEL assay. […]

In test [2] the test system is MDA-MB-231 cells. Description: Wound-healing assay (cell migration). Conditions: 3h at its IC50 value. The format is cell-based, human. The protocol: Thus, its ability to prevent the migration of MDA-MB-231 was tested by means of the wound-healing assay. Confluent monolayers of cells were cultivated and plated before being scraped to create a wound (see Experimental Section) and treated with compound 3h at concentrations corresponding to its IC50 value (Table 2) for 24 and 48 h, or DMSO (Ctrl). These distinct endpoint times were experimentally defined since MDA-MB-231 cells have a high growth rate and frequently give rise to metastases in vivo. In fact, 48 h were sufficient for the wound closure in the control cells, treated using only the vehicle.
Confluent monolayers of MDA-MB-231 cells formed after the cells were plated on twelve-well plates and grown in full media. […] A cell imager microscope (JuLi Smart fluorescence, NanoEnTek Inc., Seoul, Republic of Korea) was used to take the pictures. The percentage of wound closure used to express the cell migration toward the wounds was: wound closure%=[(At0−At∆h)÷[…]]×100% for which At0 is the area of wound measured immediately after scratching and At∆h is the area of wound measured 48 h after scratching. […] The collected images were analyzed with the JuLI^TM smart fluorescent cell viewer (NanoEnTek Inc., Seoul, Republic of Korea).
Figure 3 Wound-healing assay conducted on MDA-MB-231 cells treated with compound 3h or vehicle (Ctrl, DMSO). […] (B): quantitative analysis of wound closure. […]

Another test concerns BALB/3T3 cells. Description: ROS protection assay (DCFH-DA, H2O2-induced). The format is cell-based, mouse. Conditions: 160 μM, BALB/3T3, DCFH-DA. The procedure:
Cells were treated for 24 h, and N-acetylcystein (NAC), a compound well-known for its antioxidant capacity, was used as a reference molecule. […] Compound 3h was able to reduce ROS formation by 61.4 ± 2% at the maximum concentration of 160 μM in the BALB/3T3 cells, as shown by the quantification of fluorescence intensity, proving compound 3h to be a good ROS scavenger.
ROS production was detected using the oxidation-sensitive fluorescent probe 2′,7′-dichlorodihydrofluorescein diacetate (DCFH-DA, D6665; Sigma-Aldrich, St. Louis, MO, USA) by modifying the method described by Wang and James. A black 96-well cell culture plate (Costar, Sigma Aldrich, St. Louis, MO, USA) was used to seed viable cells. After 24 h, the cells were treated with different concentrations of compound 3h (0.1–160 µM) for 1 h at 37 °C in 5% CO2. At the end of the treatment, cells were incubated with 2′,7′-dichlorofluorescein diacetate (DCFH-DA) for 30′, used at a concentration of 25 µM, in 5% CO2. […] The formation of fluorescent dichlorofluorescein (DCF), due to the oxidation of DCFH in the presence of ROS, was read at 530 nm using a microplate reader, the Tecan Infinite M1000 Pro (Tecan, Cernusco S.N., Italy), and DMSO medium was used for control cells. The data were analyzed for statistical significance (p < 0.0001) using a one-way ANOVA, followed by Dunnett’s test performed by GraphPad Prism 9. […]

`O=C1c2ccccc2C(=O)N1c1nc2ccc(Oc3ccccc3)cc2s1` [3h, 2-[6-Phenoxy-1,3-benzothiazol-2-yl]-1H-isoindole-1,3(2H)-dione]: the “DNA damage (TUNEL, green nuclear fluorescence)” value in the test with MDA-MB-231 cells [1] was “promoted DNA damage”. In the test on MDA-MB-231 cells [2] (24 h), the “prevention of total wound closure, 24 h” value is reported as ~ 23%. For the same compound, the “prevention of total wound closure, 48 h” value in the test on MDA-MB-231 cells [2] (48 h) is ~ 26%. For the same compound, in the test on BALB/3T3 cells, the “reduction of ROS formation” value was determined as 61.4 ± 2%.

(Values after paper PMC10740580, “Benzothiazole-Phthalimide Hybrids as Anti-Breast Cancer and Antimicrobial Agents” (Antibiotics, 2023).)
